Measurements reported in US20130122541A1, “MICROORGANISM PRODUCTION OF HIGH-VALUE CHEMICAL PRODUCTS, AND RELATED COMPOSITIONS, METHODS AND SYSTEMS” (The Regents of the University of Colorado, priority 2010, published 2013).
Converted amounts (≈) assume the structure as drawn.

System: E. coli Mach1-T1R
Assay: MIC of 3-HP, microaerobic 96 well-plate, MOPS minimal media with supplements (Example 36)
Format: cell-based, Escherichia coli
Settings: increase of the 3-HP MIC, 24 h
Procedure: 3-HP was obtained from TCI America (Portland, Oreg.). Significant acrylic acid and 2-oxydipropionic contamination was observed via HPLC analysis. Samples were subsequently treated by diethyl ether extraction to remove acrylic acid and a portion of the 2-oxydipropionic contaminants. Samples were then neutralized with 10 M NaOH to a final pH of 7.0. […] The working stock solution was used for the selection, growth rates and MIC evaluations in this example.
Overnight cultures of strains were grown in 5 ml LB (with antibiotic where appropriate). A 1 v/v % was used to inoculate a 15 ml conical tube filled to the top with MOPS minimal media and capped. After the cells reached mid exponential phase, the culture was diluted to an OD600 of 0.200. The cells were further diluted 1:20 and a 10 ul aliquot was used to inoculate each well (˜10^4 cells per well).

Structure (SMILES)	MIC increase resulting from supplementation
N[C@@H](Cc1ccccc1)C(=O)O [phenylalanine]	33%
CCC(=O)C(=O)O [oxobutanoate]	7%
Cc1ncc(CO)c(CO)c1O.Cl [pyridoxine hydrochloride]	0%
N[C@@H](Cc1ccc(O)cc1)C(=O)O [tyrosine]	40%
NNC(=O)c1ccc(O)cc1 [p-hydroxybenzoic acid hydrazide]	33%
C[C@@H](O)[C@H](N)C(=O)O [threonine]	3%
N[C@@H](CCO)C(=O)O [homoserine]	33%
O=C(O)c1cccc(O)c1O [2,3-didyroxybenzoic acid, 2,3-dihydroxybenzoic acid]	33%
Nc1ccc(C(=O)O)cc1 [p-aminobenzoic acid]	7%
N[C@@H](Cc1c[nH]c2ccccc12)C(=O)O [tryptophan]	33%
Cl.NC1CCSC1=O (stereo not shown) [homocysteine thiolactone hydrochloride]	60%

System: E. coli
Assay: microbe, parasite or virus in culture
Format: cell-based
Settings: not given
Procedure: (§1) For MIC evaluations, the final results are expressed in chemical agent concentrations determined by analysis of the stock solution by HPLC (i.e., see Subsection IIIb).
(§2) The minimum inhibitory concentration (MIC) was determined aerobically in a 96 well-plate format. […] Media supplements were added according to levels reported in the Supplements Table, where specified. Overnight cultures of strains were grown in triplicate in 5 mL LB (with antibiotic where appropriate). A 1% (v/v) inoculum was introduced into a 5 ml culture of M9 minimal media.

Structure (SMILES)	% Increase Over Control	average MIC Assay Result (g/L 3-HP)
NCC(=O)O [Glycine (B)]	3%	28 g/L 3-HP
CSCC[C@H](N)C(=O)O [Methionine (B)]	36%	38 g/L 3-HP
NCCCCN [Putrescine (C)]	–	30 g/L 3-HP

Same assay, conditions: MIC of 3-HP for strain BW25113, M9 media with the named supplement(s), aerobic, 24-hour MIC evaluation

Structure (SMILES)	average MIC Assay Result (g/L 3-HP)
O=C(O)C1=C[C@@H](O)[C@@H](O)[C@H](O)C1 [Shikimate (A)]	28 g/L 3-HP
N[C@@H](CCO)C(=O)O [Homoserine (B)]	35 g/L 3-HP
CC[C@H](C)[C@H](N)C(=O)O [Isoleucine (B)]	32 g/L 3-HP
Nc1ccc(C(=O)O)cc1 [p-aminobenzoate (A)]	35 g/L 3-HP
NCCCC[C@H](N)C(=O)O [Lysine (D)]	37 g/L 3-HP
Nc1nc(=O)c2c([nH]1)NC[C@@H](CNc1ccc(C(=O)N[C@@H](CCC(=O)O)C(=O)O)cc1)N2 [Tetrahydrofolate (A)]	30 g/L 3-HP
N[C@@H](CO)C(=O)O [Serine (B)]	32 g/L 3-HP
NCCC[C@H](N)C(=O)O [Ornithine (C)]	30 g/L 3-HP
NCCCCCN [Cadaverine (C)]	35 g/L 3-HP
NC(=O)CC[C@H](N)C(=O)O [Glutamine (C)]	30 g/L 3-HP
N[C@@H](Cc1ccccc1)C(=O)O [Phenylalanine (A)]	32 g/L 3-HP
NC(CCS)C(=O)O (stereo not shown) [Homocysteine (B)]	30 g/L 3-HP
NC(=O)NCCC[C@H](N)C(=O)O [Citrulline (C)]	30 g/L 3-HP
C[C@@H](O)[C@H](N)C(=O)O [Threonine (B)]	32 g/L 3-HP
NCCCCNCCCN [Spermidine (C)]	40 g/L 3-HP
O=C(O)O [Bicarbonate (C)]	44 g/L 3-HP

Same assay, conditions: increase of 3-HP MIC over BW25113 in M9 without supplements; M9 media with the named supplement(s), aerobic

Structure (SMILES)	% Increase Over Control
O=C(O)C1=C[C@@H](O)[C@@H](O)[C@H](O)C1 [Shikimate (A)]	3%
CC[C@H](C)[C@H](N)C(=O)O [Isoleucine (B)]	17%
Nc1ccc(C(=O)O)cc1 [p-aminobenzoate (A)]	27%
NCCCC[C@H](N)C(=O)O [Lysine (D)]	33%
Nc1nc(=O)c2c([nH]1)NC[C@@H](CNc1ccc(C(=O)N[C@@H](CCC(=O)O)C(=O)O)cc1)N2 [Tetrahydrofolate (A)]	9%
N[C@@H](CO)C(=O)O [Serine (B)]	17%
NCCC[C@H](N)C(=O)O [Ornithine (C)]	9%
NC(=O)CC[C@H](N)C(=O)O [Glutamine (C)]	9%
N[C@@H](Cc1ccccc1)C(=O)O [Phenylalanine (A)]	17%
NC(CCS)C(=O)O (stereo not shown) [Homocysteine (B)]	9%
NC(=O)NCCC[C@H](N)C(=O)O [Citrulline (C)]	9%
O=C(O)O [Bicarbonate (C)]	59%

System: E. coli
Assay: microbe, parasite or virus in culture
Format: cell-based
Settings: 3-HP MIC with named supplement(s) vs BW25113 in M9 without supplement, anaerobic
Procedure: as §1
as §2, with “anaerobically” for “aerobically”

Structure (SMILES)	% Increase Over Control
Nc1ccc(C(=O)O)cc1 [p-aminobenzoate (A)]	33%
NCCCC[C@H](N)C(=O)O [Lysine (D)]	39%
Nc1nc(=O)c2c([nH]1)NC[C@@H](CNc1ccc(C(=O)N[C@@H](CCC(=O)O)C(=O)O)cc1)N2 [Tetrahydrofolate (A)]	33%
N[C@@H](CO)C(=O)O [Serine (B)]	7%

Same assay, conditions: MIC of 3-HP; BW25113, M9 media plus the named supplement(s), anaerobic, 24-hour

Structure (SMILES)	MIC Assay Result (g/L 3-HP)
Nc1ccc(C(=O)O)cc1 [p-aminobenzoate (A)]	40.0 g/L
NCCCC[C@H](N)C(=O)O [Lysine (D)]	41.7 g/L
Nc1nc(=O)c2c([nH]1)NC[C@@H](CNc1ccc(C(=O)N[C@@H](CCC(=O)O)C(=O)O)cc1)N2 [Tetrahydrofolate (A)]	40.0 g/L
N[C@@H](CO)C(=O)O [Serine (B)]	32.1 g/L

System: B. subtilis
Assay: MIC evaluation of 3-HP, B. subtilis aerobic, M9 media + glutamate, 96 well-plate, 24 h (Common Methods)
Format: cell-based
Settings: 3HP tolerance, B. subtilis 168, M9 + glu + trp plus the named supplement(s)
Procedure: as §1
as §2, with “Table” for “Table,”, “media+glutamate.” for “media.”

Structure (SMILES)	Avg 24 hr ΔOD600
CSCC[C@H](N)C(=O)O [Methionine]	0.15
O=C(O)O [Bicarbonate]	0.06
NCCCCNCCCN [spermidine]	0.09
Nc1ccc(C(=O)O)cc1 [p-aminobenzoate]	0.07
O=C(O)CC(O)(CC(=O)O)C(=O)O [Citrate]	0.30

Same assay, conditions: ΔOD600 with named supplement(s) vs B. subtilis 168 without supplement

Structure (SMILES)	% Increase Over Control
CSCC[C@H](N)C(=O)O [Methionine]	282%
O=C(O)O [Bicarbonate]	56%
NCCCCNCCCN [spermidine]	140%
Nc1ccc(C(=O)O)cc1 [p-aminobenzoate]	89%
O=C(O)CC(O)(CC(=O)O)C(=O)O [Citrate]	674%

System: Yeast strains (S288C background)
Assay: microbe, parasite or virus in culture
Format: cell-based, Saccharomyces cerevisiae
Settings: not given
Procedure: The minimum inhibitory concentration (MIC) was determined aerobically in a 96 well-plate format. […] Media supplements were added according to levels reported in the Supplements Table, where specified. Overnight cultures of strains were grown in triplicate in 5 mL SD media with vitamins (Methods in Enzymology vol. 350, page 17 (2002)). A 1% (v/v) inoculum was introduced into a 5 ml culture of SD minimal media without vitamins. After the cells reached mid-exponential phase, the culture was diluted to an OD600 of 0.200. The cells were further diluted 1:5 and a 10 μL aliquot was used to inoculate each well of a 96 well plate (˜10^4 cells per well) to total volume of 100 uL. […] Plates were incubated for 72 hours at 30 C.

Structure (SMILES)	% Increase Over Control
NCCCCN [Putrescine(C)]	22%
CSCC[C@H](N)C(=O)O [Methionine (B)]	59%

Same assay, conditions: 3-HP MIC with named supplement(s) vs S288C in SD without supplement, aerobic

Structure (SMILES)	% Increase Over Control
O=C(O)C1=C[C@@H](O)[C@@H](O)[C@H](O)C1 [Shikimate (A)]	78%
CCC(=O)C(=O)O [2-oxobutyrate (B)]	11%
N[C@@H](CC(=O)O)C(=O)O [Aspartate]	26%
NCC(=O)O [Glycine (B)]	11%
NC(=O)NCCC[C@H](N)C(=O)O [Citrulline (C)]	28%
N[C@@H](Cc1c[nH]c2ccccc12)C(=O)O [Tryptophan (A)]	20%

Same assay, conditions: MIC of 3-HP; S288C, SD media plus the named supplement(s), aerobic

Structure (SMILES)	average MIC Assay Result (g/L 3-HP)
O=C(O)C1=C[C@@H](O)[C@@H](O)[C@H](O)C1 [Shikimate (A)]	80 g/L
CCC(=O)C(=O)O [2-oxobutyrate (B)]	50 g/L
NCC(=O)O [Glycine (B)]	50 g/L
NC(=O)NCCC[C@H](N)C(=O)O [Citrulline (C)]	58 g/L

Same assay, conditions: Saccharomyces cerevisiae, read-out: Average MIC Assay Result (g/L 3-HP), MIC of 3-HP; S288C, SD media plus the named supplement(s), aerobic

Structure (SMILES)	MIC
N[C@@H](CC(=O)O)C(=O)O [Aspartate]	57 g/L
N[C@@H](Cc1c[nH]c2ccccc12)C(=O)O [Tryptophan (A)]	54 g/L

System: Yeast strains (S288C background)
Assay: microbe, parasite or virus in culture
Format: cell-based, Saccharomyces cerevisiae
Settings: not given
Remark: another data set of the same source
Procedure: The minimum inhibitory concentration (MIC) was determined anaerobically in a 96 well-plate format. […] A 1% (v/v) inoculum was introduced into a 5 ml culture of SD minimal media without vitamins. After the cells reached mid-exponential phase, the culture was diluted to an OD600 of 0.200. The cells were further diluted 1:5 and a 10 μL aliquot was used to inoculate each well of a 96 well plate (˜10^4 cells per well) to total volume of 100 uL. […] Plates were incubated for 72 hours at 30 C. […] Plates were sealed in biobag anaerobic chambers that contained gas generators for anaerobic conditions and incubated for 72 hours at 30 C.

Structure (SMILES)	% Increase Over Control
NCCCCN [Putrescine(C)]	56%
CSCC[C@H](N)C(=O)O [Methionine (B)]	167%

Same assay, conditions: 3-HP MIC with named supplement(s) vs S288C in SD without supplement, anaerobic

Structure (SMILES)	% Increase Over Control
O=C(O)C1=C[C@@H](O)[C@@H](O)[C@H](O)C1 [Shikimate (A)]	60%
CCC(=O)C(=O)O [2-oxobutyrate (B)]	2%
CC[C@H](C)[C@H](N)C(=O)O [Isoleucine (B)]	2%
NCCCC[C@H](N)C(=O)O [Lysine (D)]	20%
N[C@@H](CO)C(=O)O [Serine (B)]	20%
NCC(=O)O [Glycine (B)]	60%
NCCCCCN [Cadaverine (C)]	60%
N[C@@H](Cc1ccccc1)C(=O)O [Phenylalanine (A)]	2%
NC(CCS)C(=O)O (stereo not shown) [Homocysteine (B)]	7%
NC(=O)NCCC[C@H](N)C(=O)O [Citrulline (C)]	158%
C[C@@H](O)[C@H](N)C(=O)O [Threonine (B)]	2%
N[C@@H](Cc1c[nH]c2ccccc12)C(=O)O [Tryptophan (A)]	47%
NCCCCNCCCN [Spermidine (C)]	60%
O=C(O)O [Bicarbonate (C)]	140%

Same assay, conditions: MIC of 3-HP; S288C, SD media plus the named supplement(s), anaerobic

Structure (SMILES)	average MIC Assay Result (g/L 3-HP)
O=C(O)C1=C[C@@H](O)[C@@H](O)[C@H](O)C1 [Shikimate (A)]	60 g/L
CCC(=O)C(=O)O [2-oxobutyrate (B)]	38 g/L
CC[C@H](C)[C@H](N)C(=O)O [Isoleucine (B)]	38 g/L
NCCCC[C@H](N)C(=O)O [Lysine (D)]	45 g/L
N[C@@H](CO)C(=O)O [Serine (B)]	45 g/L
NCC(=O)O [Glycine (B)]	60 g/L
NC(CCS)C(=O)O (stereo not shown) [Homocysteine (B)]	40 g/L
NC(=O)NCCC[C@H](N)C(=O)O [Citrulline (C)]	97 g/L
O=C(O)O [Bicarbonate (C)]	90 g/L

Same assay, conditions: Saccharomyces cerevisiae, read-out: Average MIC Assay Result (g/L 3-HP), MIC of 3-HP; S288C, SD media plus the named supplement(s), anaerobic

Structure (SMILES)	MIC
NCCCCCN [Cadaverine (C)]	60 g/L
N[C@@H](Cc1ccccc1)C(=O)O [Phenylalanine (A)]	38 g/L
C[C@@H](O)[C@H](N)C(=O)O [Threonine (B)]	38 g/L
N[C@@H](Cc1c[nH]c2ccccc12)C(=O)O [Tryptophan (A)]	55 g/L
NCCCCNCCCN [Spermidine (C)]	60 g/L

System: E. coli K12
Assay: microbe, parasite or virus in culture
Settings: Escherichia coli, K12, 24 h, read-out: Minimum inhibitory concentration (MIC) of 3-HP for E. coli K12 in M9 minimal media supplemented with the substance

Structure (SMILES)	MIC
NCCCCN [putrescine]	40 mg/mL (≈ 454 mM)
NCCCCNCCCN [spermidine]	40 mg/mL (≈ 275 mM)
NCCCCCN [cadaverine]	30 mg/mL (≈ 294 mM)
